Test results published in patent US7097856B2, “Dendrimeric support or carrier macromolecule” (priority 2000, dated 2006).

Tested on: complementary strand of DNA
Test: Thermal denaturation of DNA-dendrimer conjugate hybridized with complementary strand
Format: binding

Substance: native: unmodified single stranded DNA, sequence TTC TCT TCA GTT CAC A (5′ to 3′) (DNA TTCTCTTCAGTTCACA; unmodified DNA)
- Tm (thermal denaturation, melting temperature): 52.3 °C
